# According to patent US8293743B2, “Substituted imidazo[1,2-A]pyrazine derivatives as alpha-helix mimetics and method relating to the treatment of cancer stem cells” (Choongwae Pharma Corporation, priority 2005, dated 2012):
# “Also recorded” adds a separate entry of the source.
# What was measured:
# caspase3/7 = test: Caspase3/7 activation in MES-SA/Dx5 cells; format: cell-based, human; details: added to cells treated with 1 mg/ml or 5 mg/ml of Doxorubicin
# Description: (§1) MDR transporters are believed to play important roles in protecting cancer stem cells from chemotherapy (Dean et al, Nat. Rev. Cancer 5, 275, 2005). To further study this phenomenon, a series of experiments was performed.
# IGROV-1/CP = test: Colony inhibition assay, IGROV-1/CP; format: cell-based; details: 80 cells/well
# IGROV-1 = test: Colony inhibition assay, IGROV-1; format: cell-based; details: IGROV-1, 80 cells/well
# Description: (§2) Colony inhibition assays were performed, in which plated cells from A2780, CP70, IGROV-1 and B16 cells were exposed to doses of ICG-001 within the range of 0.625 to 10 μM. An exemplary experiment is illustrated in Table 3.
# (§3) Table 4 presents data on the plating efficiencies of cultured cells from A2780, CP70, IGROV-1 and B16 in control wells as well as in wells exposed to ICG-001.
# (§4) The cells were tested at range of concentrations of ICG-001 between 0.625 and 10 μM and at cisplatin concentrations between 1.25 to 20 μM. All three ovarian cancer lines tested (A2780, CP70 and IGROV-1) were more sensitive to ICG-001 than to cisplatin. […] The cisplatin-sensitive lines, IGROV-1 and A2780, had similar sensitivity to ICG-001 as to cisplatin (FIGS. 23A and B).
# MES-SA/Dx5 cells = test: Cell proliferation/viability of MES-SA/Dx5 cells, Doxorubicin +/- ICG-001; format: cell-based, human; details: in combination with Doxorubicin
# Description: as §1
# [1] = test system: K562 imatinib resistant cells; test: Cell proliferation/viability of K562 imatinib resistant cells, Imatinib mesylate +/- ICG-001; format: cell-based; details: in combination with Imatinib mesylate
# Description: as §1
# K562 cells = test: Differentiation and caspase activation in K562 cells; format: cell-based
# normal CD34+ cells = test: Effect on normal CD34+ hematopoietic cells (cellularity, colony formation); format: cell-based
# Description: This is the result of the emergence of leukemic drug resistant clones associated with increased nuclear β-catenin levels, a hallmark of increased TCF/β-catenin transcription (Weissman NEJM 2003). […] In sharp contrast, the control colonies were large and compact.
# MDR-1 [2] = test: MDR-1/luciferase reporter activity in MES-SA/Dx5 cells; format: cell-based, human; details: read-out: IC50, reduction of MDR-1 luciferase activity
# Description: (§5) To investigate differential coactivator usage for the transcriptional regulation of the MDR-1 gene in MES-SA cells, the chemogenomic tool ICG-001 was used (Emami et al. 2004).
# MDR-1 [3] = test: MDR-1 protein expression in MES-SA/Dx5 cells (immunofluorescence, immunoblotting); format: cell-based, human; details: immunofluorescence and immunoblotting, dose dependent
# Description: as §5
# A2780 = test: Colony inhibition assay, A2780; format: cell-based; details: for Average plating efficiency: A2780, 80 cells/well
# Description: as §2, §3, §4
# CD34+ CML blasts = test: Colony formation (CFU) of CD34+ blasts from bone marrow of CML patients; format: cell-based; details: for total colony forming units (CFU): combination ICG-001 and imatinib vs control or either drug alone
# CP70 = test: Colony inhibition assay, CP70; format: cell-based; details: for Average plating efficiency: CP70, 80 cells/well
# Description: as §2, §3, §4
# MDR-1 promoter = test: ChIP assay of coactivator occupancy of the MDR-1 promoter in MES-SA/Dx5 cells; format: cell-based, human
# Description: Similar ICG-001 induced p300 recruitment at the survivin promoter has been previously observed, which was associated with recruitment of proteins associated with transcriptional repression (i.e., HDAC6 and PML) (H Ma et al. Oncogene 2005). A proposed non-binding mechanism is repressive transcriptional apparatus recruitment to the MDR-1 promoter by p300.
# MDR-1 [4] = test: MDR-1/luciferase activity in isogenic HCT116 cell lines; format: cell-based
# Description: To further confirm the importance of the role of nuclear β-catenin in driving MDR-1 expression, isogenic HCT-116 cell lines were utilized (Waldmann 2002).
# MDR-1 transcriptional regulation in the isogenic HCT116 cell lines was also investigated. […] Transfection of p300 decreased MDR-1/luciferase activity below control levels in all 3 cell lines (FIG. 17A).
# B16 = test: Colony inhibition assay, B16 melanoma; format: cell-based, mouse; details: B16, 80 cells/well
# Description: as §2, §3
# CBP-β-catenin = molecular target: T1, CBP-β-catenin (Homo sapiens, UniProt Q92793); test: TOPFlash reporter system in SW480 cells (CBP-β-catenin binding); format: cell-based; details: increasing concentrations
# T1 construct: tested using the TOPFlash reporter system in SW480 cells; endogenous in cells; host or cells: SW480 cells
# T1 sequence (Q92793 whole entry): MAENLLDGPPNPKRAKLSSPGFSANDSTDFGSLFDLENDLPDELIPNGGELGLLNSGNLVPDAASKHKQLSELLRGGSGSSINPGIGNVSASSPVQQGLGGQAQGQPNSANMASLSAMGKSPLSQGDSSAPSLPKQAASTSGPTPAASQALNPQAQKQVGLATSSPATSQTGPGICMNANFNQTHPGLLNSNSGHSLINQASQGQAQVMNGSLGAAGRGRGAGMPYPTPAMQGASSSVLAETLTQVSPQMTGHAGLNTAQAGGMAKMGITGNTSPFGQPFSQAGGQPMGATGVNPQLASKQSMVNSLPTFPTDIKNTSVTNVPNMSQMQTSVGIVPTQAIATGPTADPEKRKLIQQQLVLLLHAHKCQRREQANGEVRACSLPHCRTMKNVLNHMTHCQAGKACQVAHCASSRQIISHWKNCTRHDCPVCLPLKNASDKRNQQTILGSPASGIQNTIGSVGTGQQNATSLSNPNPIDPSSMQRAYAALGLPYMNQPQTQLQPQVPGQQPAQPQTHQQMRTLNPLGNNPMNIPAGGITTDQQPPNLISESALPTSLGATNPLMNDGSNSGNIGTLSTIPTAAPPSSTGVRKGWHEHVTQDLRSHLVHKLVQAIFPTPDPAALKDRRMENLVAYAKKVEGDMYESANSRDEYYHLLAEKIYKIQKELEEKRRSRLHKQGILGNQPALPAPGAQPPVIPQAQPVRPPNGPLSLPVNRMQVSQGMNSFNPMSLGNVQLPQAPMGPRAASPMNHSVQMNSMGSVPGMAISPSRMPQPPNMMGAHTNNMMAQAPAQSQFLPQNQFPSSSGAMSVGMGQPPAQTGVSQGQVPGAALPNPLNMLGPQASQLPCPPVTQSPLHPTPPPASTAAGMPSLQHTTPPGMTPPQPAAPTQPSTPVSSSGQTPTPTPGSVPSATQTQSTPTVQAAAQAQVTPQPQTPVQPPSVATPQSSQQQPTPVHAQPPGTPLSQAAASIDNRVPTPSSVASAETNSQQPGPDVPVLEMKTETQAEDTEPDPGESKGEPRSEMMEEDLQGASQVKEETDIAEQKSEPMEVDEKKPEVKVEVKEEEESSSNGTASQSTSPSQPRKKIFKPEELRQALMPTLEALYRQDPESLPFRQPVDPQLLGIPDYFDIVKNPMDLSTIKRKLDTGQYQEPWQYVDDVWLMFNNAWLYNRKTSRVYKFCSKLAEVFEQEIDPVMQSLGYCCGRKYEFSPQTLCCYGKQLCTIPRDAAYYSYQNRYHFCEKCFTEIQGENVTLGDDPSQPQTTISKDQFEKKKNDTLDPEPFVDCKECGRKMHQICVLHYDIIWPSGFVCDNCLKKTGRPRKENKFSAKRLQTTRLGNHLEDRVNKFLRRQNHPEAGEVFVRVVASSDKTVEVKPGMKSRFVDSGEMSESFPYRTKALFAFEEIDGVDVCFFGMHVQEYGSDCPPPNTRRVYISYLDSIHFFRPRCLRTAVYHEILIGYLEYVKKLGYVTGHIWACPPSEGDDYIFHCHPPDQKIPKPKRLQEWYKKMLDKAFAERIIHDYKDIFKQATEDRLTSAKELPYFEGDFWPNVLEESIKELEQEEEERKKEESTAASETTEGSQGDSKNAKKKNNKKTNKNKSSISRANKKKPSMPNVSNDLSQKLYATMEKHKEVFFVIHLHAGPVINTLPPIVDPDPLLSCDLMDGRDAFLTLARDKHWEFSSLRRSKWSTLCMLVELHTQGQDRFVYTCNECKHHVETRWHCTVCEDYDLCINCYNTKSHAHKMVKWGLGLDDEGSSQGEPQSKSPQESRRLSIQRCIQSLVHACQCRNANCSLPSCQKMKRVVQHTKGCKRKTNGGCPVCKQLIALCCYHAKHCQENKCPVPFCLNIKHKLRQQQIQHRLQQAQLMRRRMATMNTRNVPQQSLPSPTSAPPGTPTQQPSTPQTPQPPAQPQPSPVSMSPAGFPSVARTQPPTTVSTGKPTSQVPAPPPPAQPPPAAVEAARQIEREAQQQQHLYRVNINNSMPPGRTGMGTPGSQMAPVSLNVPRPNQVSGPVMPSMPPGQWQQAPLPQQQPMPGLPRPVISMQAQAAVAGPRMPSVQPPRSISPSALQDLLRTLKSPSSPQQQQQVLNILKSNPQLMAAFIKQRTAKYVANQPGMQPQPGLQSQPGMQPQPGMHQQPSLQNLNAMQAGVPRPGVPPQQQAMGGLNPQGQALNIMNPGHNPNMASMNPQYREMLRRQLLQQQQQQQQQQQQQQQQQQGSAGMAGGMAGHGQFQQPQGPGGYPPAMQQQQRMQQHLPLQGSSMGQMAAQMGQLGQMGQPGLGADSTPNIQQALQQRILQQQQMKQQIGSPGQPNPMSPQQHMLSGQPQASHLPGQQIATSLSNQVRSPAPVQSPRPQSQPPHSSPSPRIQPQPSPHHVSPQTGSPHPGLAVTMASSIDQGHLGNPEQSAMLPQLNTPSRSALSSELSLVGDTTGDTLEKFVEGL
# Description: The effect of several compounds on CBP-β-catenin binding was tested using the TOPFlash reporter system in SW480 cells.
structure (smiles),measurement,setting,value
O=C1[C@H](Cc2ccc(O)cc2)N2C(=O)CCN(C(=O)NCc3ccccc3)[C@H]2CN1Cc1cccc2ccccc12 [ICG-001],caspase3/7 activation,caspase3/7,increased caspase3/7 activation significantly
same,Average plating efficiency,IGROV-1/CP; 0.625 μM,59%
same,Average plating efficiency,IGROV-1/CP; 1.25 μM,25%
same,Average plating efficiency,IGROV-1/CP; 2.5 μM,13%
same,Average plating efficiency,IGROV-1/CP; 5 μM,6%
same,Average plating efficiency,IGROV-1/CP; 10 μM,0%
same,Average plating efficiency,IGROV-1; 0.625 μM,31%
same,Average plating efficiency,IGROV-1; 1.25 μM,24%
same,Average plating efficiency,IGROV-1; 2.5 μM,8%
same,Average plating efficiency,IGROV-1; 5 μM,1%
same,Average plating efficiency,IGROV-1; 10 μM,0%
same,"decrease of cell proliferation/viability, combination vs either agent alone",MES-SA/Dx5 cells,significantly more effective
same,"decrease of cell proliferation/viability, combination vs either agent alone",[1],significantly more effective
same,caspase activation,K562 cells,not capase activation
same,differentiation,K562 cells,induced differentiation
same,colony formation of normal CD34+ hematopoietic cells,normal CD34+ cells,did not affect colony formation
same,"total cellularity, CFU-Es and BFU-Es",normal CD34+ cells,minimal effects
same,adverse effects on normal CD34+ cells,normal CD34+ cells; up to 20 μM,did not have significant adverse effects
same,IC50,MDR-1 [2],~16 µM
same,level of MDR-1 protein expression,MDR-1 [3],significantly reduced
same,COLONIES (n = 4) M +/− SD,A2780; 0.625 μM ICG-001,74 +/− 4.7
same,COLONIES (n = 4) M +/− SD,A2780; 1.25 μM ICG-001,28 +/− 13.2
same,COLONIES (n = 4) M +/− SD,A2780; 2.5 μM ICG-001,0.25 +/− 0.5
same,COLONIES (n = 4) M +/− SD,A2780; 5 μM ICG-001,0
same,COLONIES (n = 4) M +/− SD,A2780; 10 μM ICG-001,0
same,Average plating efficiency,A2780; 0.625 μM,25%
same,Average plating efficiency,A2780; 1.25 μM,35%
same,Average plating efficiency,A2780; 2.5 μM,6%
same,Average plating efficiency,A2780; 5 μM,0%
same,Average plating efficiency,A2780; 10 μM,0%
same,total colony forming units (CFU),CD34+ CML blasts,most significant reduction
same,total colony forming units (CFU),CD34+ CML blasts; listed as IGC-001,significant additive effect
same,Average plating efficiency,CP70; 0.625 μM,35%
same,Average plating efficiency,CP70; 1.25 μM,35%
same,Average plating efficiency,CP70; 2.5 μM,13%
same,Average plating efficiency,CP70; 5 μM,1%
same,Average plating efficiency,CP70; 10 μM,0%
same,inhibition,"CP70; cisplatin-resistant line CP70, 5 μM",> 90%
same,occupancy of the MDR-1 promoter by CBP,MDR-1 promoter,blocked in a dose dependent fashion
same,occupancy of the MDR-1 promoter by p300,MDR-1 promoter; 25 uM ICG-001,occupancy increased
same,MDR-1/luciferase activity,MDR-1 [4]; HCT-116 wild type,dose dependently decreased
same,MDR-1/luciferase activity,MDR-1 [4]; Hβ18(ko/*) cell line,dose dependently decreased
same,MDR-1/luciferase activity,MDR-1 [4]; Hβ92(wt/ko) cells,essentially no further reduction below basal levels
same,Average plating efficiency,B16; 0.625 μM,24%
same,Average plating efficiency,B16; 1.25 μM,18%
same,Average plating efficiency,B16; 2.5 μM,3%
same,Average plating efficiency,B16; 5 μM,0%
same,Average plating efficiency,B16; 10 μM,0%
same,effect on CBP-β-catenin binding (TOPFlash reporter),CBP-β-catenin; listed as ICG-100,inhibited
O=C1[C@H](Cc2ccc(O)cc2)N2C(=O)CCN(C(=O)NCc3ccccc3)[C@H]2CN1Cc1cccc2ccccc12 [PRI-004],colony formation,"CD34+ CML blasts; 500 nM, FIG. 21C legend",completely blocks colony formation
same,effect on CBP-β-catenin binding (TOPFlash reporter),CBP-β-catenin,effective; also recorded: inhibited
